{"source": "patent US20040192554A1", "about": "“Technique for effectively treating an agricultural product with a 1-substituted-cyclopropene” (priority 2003, published 2004)", "assay_type_in_all_cases": "in vivo", "key": {"[1]": {"tested_on": "Japanese pear (variety \"Shinsei\") fruit", "assay": "Quality deterioration of Japanese pear (Shinsei) fruit after storage, Example 2", "details": "1 ppm, after storage 25 degrees C 2 weeks", "method": "Using a Japanese pear (variety “Shinsei”) fruit (6 fruits were used per group) as an agricultural product, the following experiment was performed.\n(§1) 1) A fruit and 1-methylcyclopropene (concentration 1 ppm in a chamber) were placed into a sealed chamber, and contact-treated for 16 hours under a normal pressure.\n2) A fruit was placed into a sealed chamber, and a pressure in the chamber was reduced to 12.5 kPa. Subsequently, 1-methylcyclopropene was placed therein to the concentration in the chamber of 1 ppm, and contact-treated for 1 minute or 10 minutes under the reduced pressure (12.5 kPa).\n(§2) The fruit which had been subjected to treatment of the above-mentioned 1) or 2) was stored at 25 degrees C for 2 weeks, and hardness of flesh and pH of a fruit juice which is an index for the content of an acid were measured. In addition, browning of flesh and fruit core, which is an index for an extent of storage disorder was assessed by naked eyes. Contact treatment of the above-mentioned 1) or 2) was performed on a day of harvesting a fruit. In addition, also regarding a fruit undergoing no treatment of 1) or 2) (non-treatment), similar storage was performed, and the above-mentioned index was measured and assessed. Further, regarding non-treated fruit, the above-mentioned index before storage was also measured and assessed. Different alpha characters in the same column after storage indicate that a significant difference was recognized at a risk rate of 5% (multiple range test of Newman-Keuls)."}, "[2]": {"tested_on": "Japanese pear (variety \"Kosui\") fruit", "assay": "Quality deterioration of Japanese pear (Kosui) fruit after storage, Example 3", "details": "1 ppm, after storage 25 degrees C 2 weeks", "method": "Using a Japanese pear (variety “Kosui”) fruit (6 fruits were used per group) as an agricultural product, the following experiment was performed.\nas §1\n(§3) 2) A fruit was placed into a sealed chamber, and a pressure in the chamber was reduced to 25.0 kPa. Subsequently, 1-methylcyclopropene was placed therein to the concentration in the chamber of 1 ppm, and contact-treated for 1 minute under the reduced pressure (25.0 kPa).\nas §2, with “addition,” for “addition, browning of flesh and fruit core, which is an index for”, “tasting.” for “naked eyes.”, “Table 3” for “the same column after storage”"}, "[3]": {"tested_on": "apple (variety \"Sansa\") fruit", "assay": "Quality deterioration of apple (Sansa) fruit after storage, Example 5", "details": "1 ppm, after storage 25 degrees C 2 weeks", "method": "Using an apple (variety “Sansa”) fruit (6 fruits were used per group) as an agricultural product, the following experiment was performed.\n1) A fruit and 1-methylcyclopropene (concentration 1 ppm in a chamber) were placed into a sealed chamber, and contact-treated for 12 hours under a normal pressure.\nas §3\nThe fruit which had been subjected to treatment of the above-mentioned 1) or 2) was stored at 25 degrees C for 2 weeks, and hardness of flesh, pH of a fruit juice which is an index for the content of an acid, and the ethylene concentration in a fruit core were measured. Contact treatment of the above-mentioned 1) or 2) was performed on the following day of harvesting a fruit. In addition, also regarding a fruit undergoing no treatment of 1) or 2) (non-treatment), similar storage was performed, and the above-mentioned index was measured. Further, regarding non-treated fruit, the above-mentioned index before storage was also measured. Different alpha characters in Table 4 indicate that a significant difference was recognized at a risk rate of 5% (multiple range test of Newman-Keuls)."}, "[4]": {"tested_on": "peach (variety \"Yuzora\") fruit", "assay": "Quality deterioration of peach (Yuzora) fruit after storage, Example 7", "details": "1 ppm, after storage 25 degrees C 9 days", "method": "Using a peach (variety “Yuzora”) fruit (6 fruits were used per group) as an agricultural product, the following experiment was performed.\n1) A fruit and 1-methylcyclopropene (concentration 1 ppm in a chamber) were placed into a sealed chamber, and contact-treated for 24 hours under a normal pressure.\nas §3\nThe fruit which had been subjected to treatment of the above-mentioned 1) or 2) was stored at 25 degrees C for 9 days, and hardness of flesh and was measured. In addition, contact treatment of the above-mentioned 1) or 2) was performed on the next day from harvesting of fruit. In addition, also regarding a fruit undergoing no treatment of 1) or 2) (non-treatment), similar storage was performed, and the above-mentioned index was measured. Further, regarding non-treated fruit, the above-mentioned index before storage was also measured."}, "[5]": {"tested_on": "peach (variety \"Akatsuki\") fruit", "assay": "Quality deterioration of peach (Akatsuki) fruit after storage, Example 9", "details": "1 ppm, after storage 25 degrees C 5 days, treated day after harvest", "method": "Using a peach (variety “Akatsuki”) fruit (6 fruits were used per group) as an agricultural product, the following experiment was performed.\n1) A fruit was placed into a sealed chamber, and a pressure in the chamber was reduced to 25.0 kPa. Subsequently, 1-methylcyclopropene was placed therein to the concentration in the chamber of 1 ppm, and contact-treated for 1 minute under the reduced pressure (25.0 kPa). Then, the pressure was returned to a normal pressure, and contact treatment was carried out for 12 hours while the concentration of 1-methylcyclopropene in the chamber was maintained at 1 ppm.\n2) A fruit was placed into a sealed chamber, and a pressure in the chamber was reduced to 25.0 kPa. Subsequently, 1-methylcyclopropene was placed therein to the concentration in the chamber of 1 ppm, and contact-treated for 12 hours under the reduced pressure (25.0 kPa).\nThe fruit which had been subjected to treatment of the above-mentioned 1) or 2) was stored at 25 degrees C for 5 days, and hardness of flesh was measured. […] In addition, also regarding a fruit undergoing no treatment of 1) or 2) (non-treatment), similar storage was performed, and the above-mentioned index was measured. Further, regarding a non-treated fruit, the above-mentioned index before storage was also measured. […]"}, "[6]": {"details": "Reduced pressure (12.5 kPa) 1 minute"}, "[7]": {"details": "Reduced pressure (12.5 kPa) 10 minutes"}, "[8]": {"details": "Reduced pressure (25.0 kPa) 1 minute"}}, "data": [{"molecule": "CC1=CC1", "note": "[1-MCP, 1-methylcyclopropene]", "values": [{"measurement": "Hardness of flesh", "setting": "[1]; Normal pressure 16 hours", "result": 22.74, "unit": "c N"}, {"measurement": "Presence or absence of browning", "setting": "[1]; Normal pressure 16 hours", "result": "Absence"}, {"measurement": "pH of fruit juice", "setting": "[1]; Normal pressure 16 hours", "result": 4.92, "unit": "a"}, {"measurement": "Hardness of flesh", "setting": "[1]; [6]", "result": 18.72, "unit": "b N"}, {"measurement": "Presence or absence of browning", "setting": "[1]; [6]", "result": "Absence"}, {"measurement": "pH of fruit juice", "setting": "[1]; [6]", "result": 4.90, "unit": "a"}, {"measurement": "Hardness of flesh", "setting": "[1]; [7]", "result": 22.25, "unit": "c N"}, {"measurement": "Presence or absence of browning", "setting": "[1]; [7]", "result": "Absence"}, {"measurement": "pH of fruit juice", "setting": "[1]; [7]", "result": 5.00, "unit": "ab"}, {"measurement": "Hardness of flesh", "setting": "[2]; Normal pressure 16 hours", "result": 22.44, "unit": "N"}, {"measurement": "Tasting", "setting": "[2]; Normal pressure 16 hours", "result": "Better"}, {"measurement": "pH of fruit juice", "setting": "[2]; Normal pressure 16 hours", "result": 5.22, "unit": "a"}, {"measurement": "Hardness of flesh", "setting": "[2]; [8]", "result": 21.36, "unit": "N"}, {"measurement": "Tasting", "setting": "[2]; [8]", "result": "Better"}, {"measurement": "pH of fruit juice", "setting": "[2]; [8]", "result": 5.57, "unit": "b"}, {"measurement": "Ethylene concentration in fruit core", "setting": "[3]; Normal pressure 12 hours", "result": 1.86, "unit": "a μL/L"}, {"measurement": "Hardness of flesh", "setting": "[3]; Normal pressure 12 hours", "result": 61.05, "unit": "b N"}, {"measurement": "pH of fruit juice", "setting": "[3]; Normal pressure 12 hours", "result": 3.38, "unit": "a"}, {"measurement": "Ethylene concentration in fruit core", "setting": "[3]; [8]", "result": 0.97, "unit": "a μL/L"}, {"measurement": "Hardness of flesh", "setting": "[3]; [8]", "result": 63.21, "unit": "b N"}, {"measurement": "pH of fruit juice", "setting": "[3]; [8]", "result": 3.40, "unit": "a"}, {"measurement": "Hardness of flesh", "setting": "[4]; Normal pressure 24 hours", "result": 4.38, "unit": "N"}, {"measurement": "Hardness of flesh", "setting": "[4]; [8]", "result": 4.24, "unit": "N"}, {"measurement": "Hardness of flesh", "setting": "[5]; Normal pressure 12 hours after reduced pressure (25.0 kPa) 1 minute", "result": 4.39, "unit": "a N"}, {"measurement": "Hardness of flesh", "setting": "[5]; Reduced pressure (25.0 kPa) 12 hours", "result": 7.11, "unit": "b N"}]}]}
